Source: patent publication US10729664B2, “Permanently charged sodium and calcium channel blockers as anti-inflammatory agents” (Children's Medical Center Corporation, priority 2009, dated 2020)
Entries after “also recorded” stand apart in the source; their conditions may differ.

Tests used:
[1] = test system: voltage-dependent calcium channels; test: Whole-cell recording of currents through voltage-activated calcium channels in a dissociated dorsal root ganglion neuron; format: cell-based, rat
Protocol: The traces show currents through voltage-activated calcium channels in a dissociated rat dorsal root ganglion neuron, recorded in whole-cell mode. Current was carried by 2 mM Ba^2+ on a background of 155 mM N-methyl-D-glucamine (to eliminate Na current), with an internal CsCl-based solution. Calcium channels were opened by a voltage step from −80 mV to −20 mV. When channels are opened, inward-going current is carried by Ba^2+ ions flowing into the cell.

rat hindpaw = test: Edema elicited by injection of complete Freund's adjuvant (CFA) in the rat hindpaw, total hindpaw volume by plethysmography; format: in vivo; conditions: intravenous QX-314 0.4 mg/kg
Protocol: FIG. 1 is a graph showing the effect of intravenous QX-314 (0.4 mg/kg) on the edema elicited by injection of complete Freund's adjuvant (CFA) in the rat hindpaw determined by measuring the total volume of the hindpaw by plethysmography. The degree of swelling produced by injection of CFA is reduced by administration of QX-314 reflecting reduction in neurogenic edema resulting from the blockade of nociceptors by QX314.

## COc1ccc(CC[N+](C)(C)CCCC(C#N)(c2ccc(OC)c(OC)c2)C(C)C)cc1OC (centres unmarked) [N-methyl-verapamil]
[1]; 300 μM N-methyl-verapamil alone, before and 3 minutes after exposure, step from −80 mV to −20 mV, 2 mM Ba2+
  effect on calcium channel currents, N-methyl-verapamil alone: weak, transient effects
[1]; 300 μM N-methyl-verapamil in the presence of 1 μM capsaicin to open TRPV1 channels, 3 minutes after exposure and after washout
  inhibition of voltage-dependent calcium channel current, N-methyl-verapamil applied in the presence of capsaicin: long-lasting inhibition; also recorded: inhibition of calcium channel currents that persists after washout; also recorded: inhibition of voltage-dependent calcium channel current

## CC[N+](CC)(CC)CC(=O)Nc1c(C)cccc1C [QX-314]
Rat hindpaw; CFA-injected hindpaw
  degree of swelling produced by injection of CFA (total volume of the hindpaw): reduced
Rat hindpaw; by itself (no CFA), compared with saline
  effect on hindpaw volume of QX-314 by itself: no effect different from administration of saline

## COc1cc(CNC(=O)CCCC/C=C/C(C)C)ccc1O [capsaicin, reference compound]
[1]; 1 μM capsaicin alone, before and 3 minutes after exposure, step from −80 mV to −20 mV, 2 mM Ba2+
  effect on calcium channel currents, capsaicin alone: weak, transient effects
